{
  "source": "paper PMC12696353",
  "about": "“Structural insights into endogenous agonist selectivity of aminergic receptors from the octopamine β2 receptor” (PNAS Nexus, 2025)",
  "target": "is-octβ2R S114^3.36A mutant (Ixodes scapularis, UniProt A0ACM8E5E8, S114A)",
  "experiment": "TGFα shedding assay, mutant S114^3.36A",
  "assay_type": "cell-based",
  "conditions": "Table S6",
  "procedure": "The TGFα shedding assay was performed as previously described ([28]). […] The cells were transfected using lipofectamine 2000 with plasmids encoding alkaline phosphatase–tagged TGFα (AP-TGFα) (2.5 ng/mL), is-octβ2Rs (1 ng/mL), and Gαq/s (0.5 ng/mL). After 24 h, the cells were washed with phosphate-buffered saline and resuspended in Hank's balanced salt solution (HBSS) (supplemented with 5 mM HEPES [pH 7.4]). The cells (90 μL/well) were plated in a 96-well plate and incubated with 10 μL of HBSS solution containing various concentrations of compounds for 1 h at 37 °C. Following centrifugation (200 × g, 2 min), 80 μL of the supernatant was transferred to a separate 96-well plate. Subsequently, 80 µL of 2× para-nitrophenyl phosphate (pNPP) buffer (containing 10 mM pNPP in 40 mM Tris–HCl [pH 9.5], 40 mM NaCl, and 10 mM MgCl2) was added to both the supernatant and cell-containing plates. The optical density at 405 nm of both plates was measured before and after a 1 h incubation at room temperature using a microplate reader (SpectraMax iD3, Molecular Devices, San Jose, CA, United States). AP-TGFα release was calculated using the following formulas:\nΔOD405=OD450(1h)−OD405(0h)AP−TGFαinsupernatant(%)=(ΔOD405Sup/[ΔOD450Sup+ΔOD405Cell])×125AP−TGFαrelease(%)=AP−TGFαinsupernatantunderastimulatedcondition(%)−AP−TGFαinsupernatantunderavehicle−treatedcondition […]",
  "data": [
    {"smiles": "CN/C=N/c1ccc(C)cc1C", "note": "[DPMF, N-2,4-dimethylphenyl-N′-methylformamidine]", "values": [
      {"measurement": "EC50", "result": 251, "unit": "nM"}
    ]}
  ]
}
